Where two headings read alike, the source gives them in different places.
How the values were obtained:
[1] = tested on: Jurkat cells; assay: Proliferation of Jurkat cells with or without ionomycin; type: cell-based, human; details: for IC50: Homo sapiens, Jurkat cells, 48 hrs
Protocol: FIG. 2. The Ca2+ ionophore ionomycin overcomes the inhibition of Ca2+ entry into and proliferation of Jurkat cells produced by TH-1177. Panel A. Ca2+ entry into Jurkat cells was determined as described in Materials and Methods. Ionomycin at the indicated concentrations was added at 30 s and the mitogenic monoclonal antibody (OKT3 was added at a concentration of 1 ug/ml at 60 s. Either EGTA at 2.5 mM or TH-1177 at the indicated concentrations was added at 150 s. The percentage inhibition was determined as described in Material and Methods. Panel B. Jurkat cells were grown for 48 hrs in the presence (open symbols) or absence (closed symbols) of 30 nM ionomycin and the indicated concentrations of TH-1177. Percent control growth was determined as described in Materials and Methods.
(§1) LNCaP cells at 2.5×10^4 cells/well or PC-3 cells at 5×10^4 cells/well, both in a final volume of 100 IJI, were plated in triplicate in standard flat-bottomed 96-well tissue culture plates in the presence of drug or vehicle (DMSO). Unless otherwise indicated, cells were grown for 48 h at 37° C. in a CO2 incubator. Relative cell growth was determined with the CellTiter 96 aqueous cell proliferation assay (Promega, Madison, Wis.) as described by the manufacturer using an automated plate reader. Results were calculated in a blinded fashion and are the means of triplicate determinations.

[2] = tested on: PC3 human prostate cancer cells; assay: Proliferation of PC3 prostate cancer cells (CellTiter 96); type: cell-based; details: read-out: IC50 for inhibiting proliferation of PC3 prostate cancer cells
Protocol: FIG. 5, TH-1177 and TH-1211 are stereoisomers about one of two chiral centers and have different potencies at inhibiting the proliferation of PC3 prostate cancer cells. Panel A: The structures of TH-1177 and TH-1211 were determined as described in Materials and Methods. The diastereomers are racemic at the benzhydrol center (solid arrows) and enantiomeric at the proline center (open arrows) with TH-1177 having the S configuration and TH-1211 having the R. Panel B: The proliferation of PC3 human prostate cancer cells was determined as described in Materials and Methods.
as §1

[3] = tested on: xenografted human PC3 prostate cancer cells; details: treatment with TH-1177; Haverstick et al. 2000; cited from earlier work

Row | Structure (SMILES) | effect on proliferation of ionomycin alone ([1]; 30 nM ionomycin alone) | IC50 [2] [µM] | IC50 ([1]; in the presence of 30 uM ionomycin, read-out: IC50 of TH-1177 for inhibition of proliferation, in the presence of ionomycin) [µM] | IC50 ([1]; ionomycin absent, read-out: IC50 of TH-1177 for inhibition of proliferation, in the absence of ionomycin) [µM] | lifespan of mice bearing xenografted PC3 cells [3]
1 | C[C@H](CCC(=O)O)C[C@H](C)C[C@H](C)C(=O)/C=C(\O)[C@H](C)C[C@H](C)C/C=C/[C@@H](C)[C@@H](O)[C@@H](C)[C@@H](O)C[C@@H]1CC[C@@](C)([C@H]2CC[C@@](C)([C@@H](C)O)O2)O1 [ionomycin, reference compound] | no effect |  |  |  | 
2 | COc1ccc(CCN2CCCC2COC(c2ccccc2)c2ccc(Cl)cc2)cc1 (stereo not drawn) [TH-1211] |  | 42 |  |  | 
3 | COc1ccc(CCN2CCCC2COC(c2ccccc2)c2ccc(Cl)cc2)cc1 (stereo not drawn) [TH-1177] |  | 14 | 4.6 | 17.8 | significantly extended the lifespan
